Data as given in ChEMBL document CHEMBL4421722, “Inhibitors of protein prenyltransferases” (2013).

species on record: Rattus norvegicus; assay: Inhibition of rat recombinant geranylgeranyltransferase type I expressed in Escherichia coli assessed as residual enzyme activity for geranylgeranylation of K-Ras4B at 50 uM incubated for 30 mins in presence of [3H]GGPP by scintillation counting assay relative to control

| Compound | Activity [%] |
| --- | --- |
| CCCCS[C@@H]1C[C@@H](c2ccc(OC)cc2)N(S(=O)(=O)c2ccc(C)cc2)C[C@H]1C(=O)O | 74.5 |
| CCS[C@@H]1C[C@@H](c2ccc(OC)cc2)N(S(=O)(=O)c2ccccc2C)C[C@H]1C(=O)O | 71.1 |
| COc1ccc([C@@H]2C[C@@H](Sc3ccc(C)cc3)[C@H](C(=O)O)CN2S(=O)(=O)c2ccc(C)cc2)cc1OC | 105 |
| CCCS[C@@H]1C[C@@H](c2ccc(Cl)cc2)N(S(=O)(=O)c2ccc(C)cc2)C[C@H]1C(=O)O | 71 |
| CCCCCCS[C@@H]1C[C@@H](c2cccc(Cl)c2)N(S(=O)(=O)c2ccc(C)cc2)C[C@H]1C(=O)O | 77.3 |
| Cc1ccc([C@@H]2C[C@@H](SC3CCCC3)[C@H](C(=O)O)CN2S(=O)(=O)c2ccc(C)cc2)cc1 | 87.8 |
| Cc1ccc([C@@H]2C[C@@H](SCCc3ccccc3)[C@H](C(=O)O)CN2S(C)(=O)=O)cc1 | 76.9 |
| CCCCCS[C@@H]1C[C@@H](c2ccc3c(c2)OCO3)N(S(=O)(=O)c2ccc(C)cc2)C[C@H]1C(=O)O | 66 |
| CCCS[C@@H]1C[C@@H](c2ccc(CC)cc2)N(S(=O)(=O)c2ccc(C)cc2)C[C@H]1C(=O)O | 69 |
| Cc1ccc([C@@H]2C[C@@H](SCCC(C)C)[C@H](C(=O)O)CN2S(=O)(=O)c2ccc(C)cc2)cc1 | 92.9 |
| Cc1ccc(S(=O)(=O)N2C[C@@H](C(=O)O)[C@H](SC3CCCC3)C[C@H]2c2cccc(Br)c2)cc1 | 72.1 |
| CCCCCS[C@@H]1C[C@@H](c2ccc(C)cc2)N(S(=O)(=O)c2ccccc2)C[C@H]1C(=O)O | 81 |
| Cc1ccc([C@@H]2C[C@@H](SCc3ccccc3)[C@H](C(=O)O)CN2S(C)(=O)=O)cc1 | 81.8 |
| CCS[C@@H]1C[C@@H](c2ccc(C)cc2)N(S(=O)(=O)c2ccccc2)C[C@H]1C(=O)O | 95 |
| CCOc1ccc([C@@H]2C[C@@H](SCC(C)C)[C@H](C(=O)O)CN2S(=O)(=O)c2ccc(C)cc2)cc1 | 83.1 |
| CCCCS[C@@H]1C[C@@H](c2ccc(C)cc2)N(S(=O)(=O)c2ccccc2)C[C@H]1C(=O)O | 72.6 |
| COc1cccc([C@@H]2C[C@@H](Sc3ccc(Cl)cc3)[C@H](C(=O)O)CN2S(=O)(=O)c2ccc(C)cc2)c1 | 60.3 |
| CCCS[C@@H]1C[C@@H](c2ccc(C)cc2)N(S(C)(=O)=O)C[C@H]1C(=O)O | 96.8 |
| CCCS[C@@H]1C[C@@H](c2cccc(Br)c2)N(S(=O)(=O)c2ccc(C)cc2)C[C@H]1C(=O)O | 88.5 |

| Compound | Activity [%] |
| --- | --- |
| Cc1ccc(S(=O)(=O)N2C[C@@H](C(=O)O)[C@H](Sc3ccc(Cl)cc3)C[C@H]2c2ccc3c(c2)OCO3)cc1 | 90.9 |
| COc1ccc([C@@H]2C[C@@H](Sc3ccccc3)[C@H](C(=O)O)CN2S(=O)(=O)c2ccccc2)cc1 | 103 |
| CCS[C@@H]1C[C@@H](c2ccc(OC)cc2)N(S(=O)(=O)c2ccc(C)cc2)C[C@H]1C(=O)O | 96.3 |
| COc1ccc([C@@H]2CC=C(C(C)=O)CN2S(=O)(=O)c2ccccc2C)cc1 | 77.3 |
| CCS[C@@H]1C[C@@H](c2cccc(OC)c2)N(S(=O)(=O)c2ccc(C)cc2)C[C@H]1C(=O)O | 84.8 |
| CCCCS[C@@H]1C[C@@H](c2ccc(OC)cc2)N(S(=O)(=O)c2ccccc2C)C[C@H]1C(=O)O | 88.8 |
| CCCCCCS[C@@H]1C[C@@H](c2ccc(C)cc2)N(S(=O)(=O)c2ccccc2)C[C@H]1C(=O)O | 81.2 |
| CCCCS[C@@H]1C[C@@H](c2ccc(C)cc2)N(S(=O)(=O)c2ccc(Cl)cc2)C[C@H]1C(=O)O | 49.2 |
| CC(=O)C1=CC[C@@H](c2ccc(C)cc2)N(S(C)(=O)=O)C1 | 108 |
| Cc1ccc(S(=O)(=O)N2C[C@@H](C(=O)O)[C@H](SC3CCCC3)C[C@H]2c2ccc(Cl)cc2)cc1 | 94.7 |
| COc1ccc(S[C@@H]2C[C@@H](c3cccc(Br)c3)N(S(=O)(=O)c3ccc(C)cc3)C[C@H]2C(=O)O)cc1 | 81.4 |
| CCCCCCS[C@@H]1C[C@@H](c2ccccc2)N(S(=O)(=O)c2ccc(C)cc2)C[C@H]1C(=O)O | 77.5 |
| CCc1ccc([C@@H]2C=CCCN2S(=O)(=O)c2ccc(C)cc2)cc1 | 99.5 |
| COc1cccc([C@@H]2C[C@@H](SCc3ccc(C(C)(C)C)cc3)[C@H](C(=O)O)CN2S(=O)(=O)c2ccc(C)cc2)c1 | 39 |
| COc1cccc([C@@H]2C[C@@H](Sc3ccccc3)[C@H](C(=O)O)CN2S(=O)(=O)c2ccc(C)cc2)c1 | 86.1 |
| CCOc1ccc([C@@H]2C[C@@H](Sc3ccc(OC)cc3)[C@H](C(=O)O)CN2S(=O)(=O)c2ccc(C)cc2)cc1 | 79.1 |
| COc1ccc([C@@H]2C[C@@H](SCc3ccc(C(C)(C)C)cc3)[C@H](C(=O)O)CN2S(=O)(=O)c2ccc(C)cc2)cc1 | 44.1 |
| Cc1ccc(S(=O)(=O)N2C[C@@H](C(=O)O)[C@H](SC3CCCC3)C[C@H]2c2ccc3c(c2)OCO3)cc1 | 98.1 |

Now from value to compound:

| Activity [%] | Compound |
| --- | --- |
| 57.1 | Cc1ccc(S(=O)(=O)N2[C@@H](c3cccc(C)c3)C(C(=O)O)=CC[C@H]2c2ccc(C(C)C)cc2)cc1 |
| 60.4 | CC(C)(C)c1ccc([C@H]2C(C(=O)O)=CC[C@@H](c3ccc(Cl)cc3)N2S(C)(=O)=O)cc1 |
| 41.1 | Cc1ccc(S(=O)(=O)N2[C@@H](c3cccc(Br)c3)C(C(=O)O)=CC[C@H]2c2ccc(C(C)C)cc2)cc1 |
| 73.3 | CC(C)(C)c1ccc([C@H]2C(C(=O)O)=CC[C@@H](c3ccccc3)N2S(C)(=O)=O)cc1 |
| 86.6 | CS(=O)(=O)N1[C@@H](c2cccc(F)c2)C(C(=O)O)=CC[C@H]1c1ccccc1 |
| 78.8 | Cc1ccc(S(=O)(=O)N2[C@@H](c3ccc(C(C)(C)C)cc3)C(C(=O)O)=CC[C@H]2c2cccc(Cl)c2)cc1 |
| 72 | CCc1ccc([C@@H]2C[C@@H](Sc3ccc(Cl)cc3)[C@H](C(=O)O)CN2S(=O)(=O)c2ccc(C)cc2)cc1 |
| 86.8 | Cc1ccc([C@@H]2CC=C(C(=O)O)[C@H](c3ccc(Cl)cc3)N2S(=O)(=O)c2ccccc2C)cc1 |
| 69.4 | Cc1ccc([C@@H]2CC=C(C(=O)O)[C@H](c3cccc(Cl)c3)N2S(=O)(=O)c2ccc(C)cc2)cc1 |
| 66.3 | Cc1ccc([C@@H]2CC=C(C(=O)O)[C@H](c3cccc(C)c3)N2S(=O)(=O)c2ccc(C)cc2)cc1 |
| 69.5 | Cc1ccc([C@@H]2CC=C(C(=O)O)[C@H](c3ccc(Br)cc3)N2S(=O)(=O)c2ccc(Cl)cc2)cc1 |
| 85.6 | COc1ccc(S[C@@H]2C[C@@H](c3ccc(Cl)cc3)N(S(=O)(=O)c3ccccc3C)C[C@H]2C(=O)O)cc1 |
| 102 | Cc1ccc(S(=O)(=O)N2[C@@H](c3ccc(C(C)(C)C)cc3)C(C(=O)O)=CC[C@H]2c2ccc(Cl)cc2)cc1 |
| 70.1 | Cc1ccc(S(=O)(=O)N2[C@@H](c3cccc(Cl)c3)C(C(=O)O)=CC[C@H]2c2ccccc2F)cc1 |
| 69.9 | Cc1ccc(S(=O)(=O)N2[C@@H](c3cccc(F)c3)C(C(=O)O)=CC[C@H]2c2cccc(F)c2)cc1 |
| 111 | COC(=O)c1ccccc1S(=O)(=O)N1[C@@H](c2ccc(C(C)(C)C)cc2)C(C(=O)O)=CC[C@H]1c1ccc(C)cc1 |
| 62.3 | Cc1ccc(S(=O)(=O)N2[C@@H](c3ccc(F)cc3)C(C(=O)O)=CC[C@H]2c2cccs2)cc1 |
| 73.4 | Cc1ccc(S(=O)(=O)N2[C@@H](c3ccc(Cl)cc3)C(C(=O)O)=CC[C@H]2c2ccc3c(c2)OCO3)cc1 |
| 65.8 | COc1cccc([C@@H]2CC=C(C(=O)O)[C@H](c3ccc(Br)cc3)N2S(=O)(=O)c2ccc(C)cc2)c1 |
| 88.3 | Cc1ccc(S(=O)(=O)N2[C@@H](c3ccc(C(C)(C)C)cc3)C(C(=O)O)=CC[C@H]2c2ccc(C(C)C)cc2)cc1 |

| Activity [%] | Compound |
| --- | --- |
| 62.3 | Cc1ccc(S(=O)(=O)N2[C@@H](c3cccc(Cl)c3)C(C(=O)O)=CC[C@H]2c2cccc(F)c2)cc1 |
| 77.2 | Cc1ccc(S(=O)(=O)N2[C@@H](c3ccc(C(C)(C)C)cc3)C(C(=O)O)=CC[C@H]2c2cccc(F)c2)cc1 |
| 53.4 | Cc1ccc([C@@H]2CC=C(C(=O)O)[C@H](c3cccc(C)c3)N2S(=O)(=O)c2ccccc2C)cc1 |
| 60 | Cc1ccc([C@@H]2CC=C(C(=O)O)[C@H](c3ccc(F)cc3)N2S(=O)(=O)c2ccc(Cl)cc2)cc1 |
| 67.1 | Cc1ccc(S(=O)(=O)N2[C@@H](c3cccc(Br)c3)C(C(=O)O)=CC[C@H]2c2cccc(F)c2)cc1 |
| 71.2 | Cc1ccc(S(=O)(=O)N2[C@@H](c3ccc(Br)cc3)C(C(=O)O)=CC[C@H]2c2cccs2)cc1 |
| 73.6 | Cc1ccc([C@H]2C(C(=O)O)=CC[C@@H](c3ccc(C)cc3)N2S(=O)(=O)c2ccc(C)cc2)cc1 |
| 53.2 | Cc1ccccc1S(=O)(=O)N1C[C@@H](C(=O)O)[C@H](SCCC(C)C)C[C@H]1c1ccc(Cl)cc1 |
| 88.3 | Cc1ccc([C@H]2C(C(=O)O)=CC[C@@H](c3ccc(C)cc3)N2S(=O)(=O)c2ccccc2C)cc1 |
| 80.8 | CC(=O)C1=CC[C@@H](c2ccc(Cl)cc2)N(S(=O)(=O)c2ccc(C)cc2)C1 |
| 67.7 | COc1ccc([C@@H]2CC=C(C(=O)O)[C@H](c3ccc(F)cc3)N2S(=O)(=O)c2ccccc2)cc1 |
| 85.5 | COc1ccc(S[C@@H]2C[C@@H](c3ccc(Cl)cc3)N(S(=O)(=O)c3ccc(C)cc3)C[C@H]2C(=O)O)cc1 |
| 72.9 | COc1ccc([C@@H]2CC=C(C(=O)O)[C@H](c3ccc(F)cc3)N2S(=O)(=O)c2ccc(C)cc2)cc1 |
| 99.4 | CCCS[C@@H]1C[C@@H](c2ccc(C)cc2)N(S(=O)(=O)c2ccccc2C)C[C@H]1C(=O)O |
| 84.5 | COc1ccc([C@@H]2CC=C(C(=O)O)[C@H](c3cccc(Br)c3)N2S(=O)(=O)c2ccc(C)cc2)cc1 |
| 88.9 | COc1ccc([C@@H]2CC=C(C(=O)O)[C@H](c3cccc(F)c3)N2S(=O)(=O)c2ccc(C)cc2)cc1OC |
| 71.6 | CCOc1ccc([C@@H]2CC=C(C(=O)O)[C@H](c3ccc(Cl)cc3)N2S(=O)(=O)c2ccc(C)cc2)cc1 |
| 79.4 | CCOc1ccc([C@@H]2CC=C(C(=O)O)[C@H](c3ccc(Br)cc3)N2S(=O)(=O)c2ccc(C)cc2)cc1 |
| 69.8 | COc1ccc([C@@H]2CC=C(C(=O)O)[C@H](c3ccc(F)cc3)N2S(=O)(=O)c2ccc(C)cc2)cc1OC |
| 64.9 | COC(=O)c1ccccc1S(=O)(=O)N1[C@@H](c2cccc(Br)c2)C(C(=O)O)=CC[C@H]1c1ccc(C)cc1 |
